Measurements published in patent US12582722B2, “Bifunctional compounds for degrading BTK via ubiquitin proteosome pathway” (NURIX THERAPEUTICS, INC., priority 2019, dated 2026).

Biological target: T1, BTK (Homo sapiens, UniProt Q06187)
T1 construct: endogenous in cells; host or cells: Ramos (ATCC CRL-1596)
Assay: Cellular BTK HTRF Assay (BTK degradation in Ramos cells)
Type: cell-based
Conditions: four hours incubation, 37° C., BTK levels relative to DMSO-treated cells
Experimental: Ramos (CRL-1596) cells were obtained from American Type Culture Collection and were grown in RPMI-1640 media (ATCC, 30-2001) supplemented with 10% heat-inactivated FBS (Corning Premium Fetal Bovine Serum from Fisher, MT35015CV).
Compounds of the present invention were added to 50,000 Ramos cells in round-bottom 96 well plates with a final DMSO concentration of […] and were incubated at 37° C., 5% CO2 for four hours. BTK levels were determined using Cisbio Total-BTK HTRF ([…] Time-Resolved Fluorescence) kit (63ADK064PEG) according to manufacturer's protocol. Briefly, cells were incubated in 1× supplied lysis buffer for 30 minutes. In an opaque white low volume 96 well plate (Cisbio, 66PL96005), cell lysate was combined with two different specific BTK antibodies, one conjugated with Eu^3+-Cryptate FRET donor and one conjugated with d2 FRET acceptor. Assay controls include wells containing cell lysate with only the Eu^3+-Cryptate FRET donor antibody and wells containing both HTRF antibodies and lysis buffer without cells or control lysate provided by Cisbio. HTRF ratio was calculated as (acceptor signal at 665 nm/donor signal at 620 nm)×10^4. Background HTRF levels were determined from the control well containing the donor, but no acceptor, antibody. Background HTRF levels were subtracted from all samples. Readouts were reported as HTRF levels relative to HTRF levels of DMSO-treated cells. Four-parameter non-linear regressions were performed in GraphPad Prism 7.02 to obtain DC50 values. DC50 values are provided in Table 3, wherein A<7.5 nM, 7.5 nM≤B≤50 nM, and 50 nM<C<500 nM.

T1 sequence (Q06187 whole entry): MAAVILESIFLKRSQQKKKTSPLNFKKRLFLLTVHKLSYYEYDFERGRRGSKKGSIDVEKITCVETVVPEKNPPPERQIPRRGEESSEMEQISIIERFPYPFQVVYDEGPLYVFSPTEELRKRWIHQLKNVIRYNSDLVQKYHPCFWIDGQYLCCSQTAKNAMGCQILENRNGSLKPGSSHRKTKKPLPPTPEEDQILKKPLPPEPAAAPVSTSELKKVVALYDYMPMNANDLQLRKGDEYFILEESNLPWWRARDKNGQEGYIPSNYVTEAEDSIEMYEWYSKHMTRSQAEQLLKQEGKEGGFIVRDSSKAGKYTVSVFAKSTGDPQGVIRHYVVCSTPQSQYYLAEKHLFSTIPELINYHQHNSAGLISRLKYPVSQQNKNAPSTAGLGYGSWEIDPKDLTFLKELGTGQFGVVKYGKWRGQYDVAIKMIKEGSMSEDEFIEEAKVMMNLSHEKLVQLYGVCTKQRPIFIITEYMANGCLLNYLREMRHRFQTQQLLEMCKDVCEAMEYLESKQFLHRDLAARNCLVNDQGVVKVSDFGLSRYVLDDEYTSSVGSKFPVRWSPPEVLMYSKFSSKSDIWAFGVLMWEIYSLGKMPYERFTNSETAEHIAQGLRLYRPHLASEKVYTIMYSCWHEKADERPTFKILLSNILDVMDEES

Q: With `CS(=O)(=O)c1ccc(Nc2nc(N3CCC[C@@H](NC(=O)N4CCC5(CC4)CN(Cc4ccc6c(c4)C(=O)N(C4CCC(=O)NC4=O)C6=O)C5)C3)cnc2C(N)=O)cc1` (stereo partly drawn) [Compound 29, N-[(3R)-1-{5-carbamoyl-6-[(4-methanesulfonylphenyl)amino]pyrazin-2-yl}piperidin-3-yl]-2-{[2-(2,6-dioxopiperidin-3-yl)-1,3-dioxoisoindol-5-yl]methyl}-2,7-diazaspiro[3.5]nonane-7-carboxamide] as the compound, how does the DC50 read?
A: The DC50 was under 7.5 nM.

Q: Which DC50 does the source give for `CS(=O)(=O)c1ccc(Nc2nc(N3CCC[C@@H](NC(=O)CCOCCCc4cccc5c4CN(C4CCC(=O)NC4=O)C5=O)C3)cnc2C(N)=O)cc1` (stereo partly drawn) [Compound 47, 5-[(3R)-3-(3-{3-[2-(2,6-dioxopiperidin-3-yl)-1-oxo-3H-isoindol-4-yl]propoxy}propanamido)piperidin-1-yl]-3-[(4-methanesulfonylphenyl)amino] pyrazine-2-carboxamide] here?
A: The DC50 was 50 to 500 nM.

Q: With `Cn1cc(Nc2nc(N3CCC[C@@H](N4CCC5(CCN(CC6CN(c7ccc8c(c7)C(=O)N(C7CCC(=O)NC7=O)C8=O)C6)CC5)C4=O)C3)cnc2C(N)=O)cn1` (stereo partly drawn) [Compound 50, 5-[(3R)-3-[8-({1-[2-(2,6-dioxopiperidin-3-yl)-1,3-dioxoisoindol-5-yl]azetidin-3-yl}methyl)-1-oxo-2,8-diazaspiro[4.5]decan-2-yl]piperidin-1-yl]-3-[(1-methylpyrazol-4-yl)amino]pyrazine-2-carboxamide] as the compound, how does the DC50 read?
A: Its DC50 is under 7.5 nM.

Q: How did the DC50 turn out when `CS(=O)(=O)c1ccc(Nc2nc(N3CCC[C@@H](NC(=O)[C@H]4CCN(CC5CCN(c6ccc7c(c6)C(=O)N(C6CCC(=O)NC6=O)C7=O)CC5)C4)C3)cnc2C(N)=O)cc1` (stereo partly drawn) [Compound 46, 5-[(3R)-3-[1-({1-[2-(2,6-dioxopiperidin-3-yl)-1,3-dioxoisoindol-5-yl]piperidin-4-yl}methyl)pyrrolidine-3-amido]piperidin-1-yl]-3-[(4-methanesulfonylphenyl)amino]pyrazine-2-carboxamide] was run?
A: The DC50 was 7.5 to 50 nM.

Q: With `Cc1cc(Nc2nc(N3CCC[C@@H](NC(=O)OCCC4CCN(c5ccc6c(c5)C(=O)N(C5CCC(=O)NC5=O)C6=O)CC4)C3)cnc2C(N)=O)sn1` (stereo partly drawn) [Compound 7, 2-(1-(2-(2,6-dioxopiperidin-3-yl)-1,3-dioxoisoindolin-5-yl)piperidin-4-yl)ethyl ((R)-1-(5-carbamoyl-6-((3-methylisothiazol-5-yl)amino)pyrazin-2-yl)piperidin-3-yl)carbamate] as the compound, how does the DC50 read?
A: Its DC50 is 50 to 500 nM.

Q: Which DC50 does the source give for `CS(=O)(=O)c1ccc(Nc2nc(N3CCC[C@@H](NC(=O)N4CCC5(CCN(Cc6ccc7c(c6)C(=O)N(C6CCC(=O)NC6=O)C7=O)C5)CC4)C3)cnc2C(N)=O)cc1` (stereo partly drawn) [Compound 13, N-[(3R)-1-{5-carbamoyl-6-[(4-methanesulfonylphenyl)amino]pyrazin-2-yl}piperidin-3-yl]-2-{[2-(2,6-dioxopiperidin-3-yl)-1,3-dioxoisoindol-5-yl]methyl}-2,8-diazaspiro[4.5]decane-8-carboxamide] here?
A: Its DC50 is under 7.5 nM.

Q: With `CS(=O)(=O)c1ccc(Nc2nc(N3CCC[C@@H](NC(=O)[C@H]4[C@@H]5CN(C6CCN(c7ccc8c(c7)C(=O)N(C7CCC(=O)NC7=O)C8=O)CC6)C[C@@H]54)C3)cnc2C(N)=O)cc1` (stereo partly drawn) [Compound 35, (1R,5S,6r)-N—((R)-1-(5-carbamoyl-6-((4-(methylsulfonyl)phenyl)amino)pyrazin-2-yl)piperidin-3-yl)-3-(1-(2-(2,6-dioxopiperidin-3-yl)-1,3-dioxoisoindolin-5-yl)piperidin-4-yl)-3-azabicyclo[3.1.0]hexane-6-carboxamide] as the compound, how does the DC50 read?
A: The DC50 was 7.5 to 50 nM.

Q: How did the DC50 turn out when `Cn1cc(Nc2nc(N3CCC[C@@H](NC(=O)C4CCN(CC5CN(c6ccc7c(c6)C(=O)N(C6CCC(=O)NC6=O)C7=O)C5)CC4)C3)cnc2C(N)=O)cn1` (stereo partly drawn) [Compound 19, 5-[(3R)-3-[1-({1-[2-(2,6-dioxopiperidin-3-yl)-1,3-dioxoisoindol-5-yl]azetidin-3-yl}methyl)piperidine-4-amido]piperidin-1-yl]-3-[(1-methylpyrazol-4-yl)amino]pyrazine-2-carboxamide] was run?
A: The DC50 was under 7.5 nM.

Q: Which DC50 does the source give for `Cn1cc(Nc2nc(N3CCC[C@@H](N4CC5(CN(CC6CCN(c7ccc8c(c7)C(=O)N(C7CCC(=O)NC7=O)C8=O)CC6)C5)OC4=O)C3)cnc2C(N)=O)cn1` (stereo partly drawn) [Compound 43, 5-[(3R)-3-[2-({1-[2-(2,6-dioxopiperidin-3-yl)-1,3-dioxoisoindol-5-yl]piperidin-4-yl}methyl)-6-oxo-5-oxa-2,7-diazaspiro[3.4]octan-7-yl]piperidin-1-yl]-3-[(1-methylpyrazol-4-yl)amino]pyrazine-2-carboxamide] here?
A: The DC50 was under 7.5 nM.

Q: `Cc1cc(Nc2nc(N3CCC[C@@H](NC(=O)N4CCN(c5ccc6c(c5)C(=O)N(C5CCC(=O)NC5=O)C6=O)CC4)C3)cnc2C(N)=O)sn1` (stereo partly drawn) [Compound 27, 5-[(3R)-3-{4-[2-(2,6-dioxopiperidin-3-yl)-1,3-dioxoisoindol-5-yl]piperazine-1-carbonylamino}piperidin-1-yl]-3-[(3-methyl-1,2-thiazol-5-yl)amino]pyrazine-2-carboxamide] was tested. Which DC50 did it give?
A: Its DC50 is 50 to 500 nM.

Q: Which DC50 does the source give for `Cn1cc(Nc2nc(N3CCC[C@@H](N4CCC5(CCN(CC6CCN(c7ccc8c(c7)C(=O)N(C7CCC(=O)NC7=O)C8=O)CC6)CC5)C4=O)C3)cnc2C(N)=O)cn1` (stereo partly drawn) [Compound 48, 5-[(3R)-3-[8-({1-[2-(2,6-dioxopiperidin-3-yl)-1,3-dioxoisoindol-5-yl]piperidin-4-yl}methyl)-1-oxo-2,8-diazaspiro[4.5]decan-2-yl]piperidin-1-yl]-3-[(1-methylpyrazol-4-yl)amino]pyrazine-2-carboxamide] here?
A: Its DC50 is under 7.5 nM.

Q: How did the DC50 turn out when `CS(=O)(=O)c1ccc(Nc2nc(N3CCC[C@@H](NC(=O)N4CC5(CN(Cc6ccc7c(c6)C(=O)N(C6CCC(=O)NC6=O)C7=O)C5)C4)C3)cnc2C(N)=O)cc1` (stereo partly drawn) [Compound 25, N-[(3R)-1-{5-carbamoyl-6-[(4-methanesulfonylphenyl)amino]pyrazin-2-yl}piperidin-3-yl]-6-{[2-(2,6-dioxopiperidin-3-yl)-1,3-dioxoisoindol-5-yl]methyl}-2,6-diazaspiro[3.3]heptane-2-carboxamide] was run?
A: Its DC50 is 7.5 to 50 nM.

Q: For `CS(=O)(=O)c1ccc(Nc2nc(N3CCC[C@@H](NC(=O)C4CCN(CC5CCN(c6ccc7c(c6)C(=O)N(C6CCC(=O)NC6=O)C7=O)CC5)CC4)C3)cnc2C(N)=O)cc1` (stereo partly drawn) [Compound 20, 5-[(3R)-3-[1-({1-[2-(2,6-dioxopiperidin-3-yl)-1,3-dioxoisoindol-5-yl]piperidin-4-yl}methyl)piperidine-4-amido]piperidin-1-yl]-3-[(4-methanesulfonylphenyl)amino]pyrazine-2-carboxamide], which DC50 is on record?
A: Its DC50 is under 7.5 nM.
